Compound: COc1cc(-c2nn([C@H]3CC[C@H](N4CCN(C(C)=O)CC4)CC3)c3ncnc(N)c23)ccc1NC(=O)c1cc2ccccc2n1C + CS(=O)(=O)N1CCN(Cc2cc3nc(-c4cccc5[nH]ncc45)nc(N4CCOCC4)c3s2)CC1 [Pictilisib] (partner 1 µM)
Assay: relative viability (nuclei count vs DMSO), 5 days (fraction); higher = more cells survive
Conditions: first compound 0.128 µM
Procedure, shortened: (§1)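 Medians of duplicate plates are given as relative viability. That measure is the nuclei count in treated wells divided by the count in vehicle wells. Counts were taken on 4× images of lung cancer cell lines in 1536-well plates, 5 days after pin-tool dosing the day after seeding with one drug alone or a fixed anchor-drug dose plus five library-drug doses (not always all listed) in √10 steps.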

Cell Line | relative viability
ChaGo-K-1 | 0.587
NCI-H2170 | 0.334
NCI-H2405 | 0.303
HOP-62 | 0.738
LU99A | 0.391
BEN | 0.58
HARA | 0.349
HCC-78 | 0.21
NCI-H322M | 0.51
LCLC-97TM1 | 0.227
NCI-H2009 | 0.649
A-427 | 0.703
NCI-H441 | 0.602
NCI-H661 | 0.392
NCI-H1734 | 0.481
NCI-H460 | 0.345
NCI-H2347 | 0.772
SK-LU-1 | 0.498
NCI-H1395 | 0.512
201T | 0.571
NCI-H1915 | 0.939
HCC-827 | 0.902
LXF-289 | 0.775
NCI-H23 | 0.403
NCI-H647 | 0.257
NCI-H1651 | 0.483
EPLC-272H | 0.29
NCI-H1355 | 0.412
NCI-H3122 | 0.548

Same assay, conditions: first compound 1.28 µM

Cell Line | relative viability
LOU-NH91 | 0.509
ChaGo-K-1 | 0.644
NCI-H2170 | 0.248
NCI-H2405 | 0.258
HOP-62 | 0.604
LU99A | 0.326
BEN | 0.432
HARA | 0.362
HCC-78 | 0.196
NCI-H322M | 0.463
LCLC-97TM1 | 0.281
NCI-H2009 | 0.578
A-427 | 0.493
NCI-H441 | 0.421
NCI-H661 | 0.254
NCI-H1734 | 0.362
NCI-H460 | 0.368
NCI-H2347 | 0.414
SK-LU-1 | 0.269
NCI-H1395 | 0.486
201T | 0.432
NCI-H1915 | 0.879
HCC-827 | 0.783
LXF-289 | 0.509
NCI-H23 | 0.457
NCI-H647 | 0.28
NCI-H1651 | 0.43
EPLC-272H | 0.311
NCI-H1355 | 0.406
NCI-H3122 | 0.484

Compound: COc1cc(-c2nn([C@H]3CC[C@H](N4CCN(C(C)=O)CC4)CC3)c3ncnc(N)c23)ccc1NC(=O)c1cc2ccccc2n1C + Nc1nc2[nH]cc(CCc3ccc(C(=O)N[C@@H](CCC(=O)O)C(=O)O)cc3)c2c(=O)[nH]1 [Pemetrexed] (partner 0.2 µM)
Assay: as above
Conditions: first compound 0.0128 µM
Procedure, shortened: as §1

Cell Line | relative viability
LOU-NH91 | 0.395
ChaGo-K-1 | 0.258
NCI-H2170 | 0.267
NCI-H2405 | 1.02
HOP-62 | 0.382
LU99A | 0.162
BEN | 0.686
HARA | 0.213
HCC-78 | 0.939
NCI-H322M | 0.603
LCLC-97TM1 | 0.182
NCI-H2009 | 1.03
A-427 | 0.972
NCI-H441 | 0.275
NCI-H661 | 0.939
NCI-H1734 | 0.432
NCI-H460 | 0.0604
NCI-H2347 | 0.45
SK-LU-1 | 1.06
NCI-H1395 | 0.819
201T | 0.394
NCI-H1915 | 0.536
HCC-827 | 0.253
LXF-289 | 1.01
NCI-H23 | 0.66
NCI-H647 | 0.19
NCI-H1651 | 0.57
EPLC-272H | 0.406
NCI-H1355 | 1.18
NCI-H3122 | 0.19

Same assay, conditions: first compound 0.04048 µM

Cell Line | relative viability
LOU-NH91 | 0.348
ChaGo-K-1 | 0.26
NCI-H2170 | 0.275
NCI-H2405 | 0.698
HOP-62 | 0.332
LU99A | 0.225
BEN | 0.814
HARA | 0.233
HCC-78 | 0.879
NCI-H322M | 0.643
LCLC-97TM1 | 0.185
NCI-H2009 | 1.09
A-427 | 1.07
NCI-H441 | 0.306
NCI-H661 | 0.991
NCI-H1734 | 0.391
NCI-H460 | 0.0561
NCI-H2347 | 0.447
SK-LU-1 | 1.03
NCI-H1395 | 0.81
201T | 0.288
NCI-H1915 | 0.452
HCC-827 | 0.251
LXF-289 | 0.881
NCI-H23 | 0.459
NCI-H647 | 0.154
NCI-H1651 | 0.617
EPLC-272H | 0.338
NCI-H1355 | 1.06

Same assay, conditions: first compound 0.128 µM

Cell Line | relative viability
LOU-NH91 | 0.363
ChaGo-K-1 | 0.252
NCI-H2170 | 0.296
NCI-H2405 | 0.991
HOP-62 | 0.289
LU99A | 0.169
BEN | 0.871
HARA | 0.216
HCC-78 | 0.889
NCI-H322M | 0.604
LCLC-97TM1 | 0.171
NCI-H2009 | 1.21
A-427 | 0.906
NCI-H441 | 0.254
NCI-H661 | 0.93
NCI-H1734 | 0.406
NCI-H460 | 0.0601
NCI-H2347 | 0.431
SK-LU-1 | 0.936
NCI-H1395 | 0.763
201T | 0.316
NCI-H1915 | 0.488
HCC-827 | 0.211
LXF-289 | 0.901
NCI-H23 | 0.688
NCI-H647 | 0.172
NCI-H1651 | 0.57
EPLC-272H | 0.287
NCI-H1355 | 1.01
NCI-H3122 | 0.201

Same assay, conditions: first compound 1.28 µM

Cell Line | relative viability
LOU-NH91 | 0.433
ChaGo-K-1 | 0.237
NCI-H2170 | 0.253
NCI-H2405 | 0.426
HOP-62 | 0.387
LU99A | 0.252
BEN | 0.664
HARA | 0.184
HCC-78 | 0.91
NCI-H322M | 0.538
LCLC-97TM1 | 0.19
NCI-H2009 | 1.19
A-427 | 0.93
NCI-H441 | 0.295
NCI-H661 | 0.968
NCI-H1734 | 0.432
NCI-H460 | 0.0597
NCI-H2347 | 0.382
SK-LU-1 | 0.686
NCI-H1395 | 0.59
201T | 0.309
NCI-H1915 | 0.5
HCC-827 | 0.238
LXF-289 | 1.16
NCI-H23 | 0.618
NCI-H647 | 0.164
NCI-H1651 | 0.438
EPLC-272H | 0.253
NCI-H1355 | 0.967
NCI-H3122 | 0.194

Compound: COc1cc(-c2nn([C@H]3CC[C@H](N4CCN(C(C)=O)CC4)CC3)c3ncnc(N)c23)ccc1NC(=O)c1cc2ccccc2n1C + Nc1ncn([C@H]2C[C@H](O)[C@@H](CO)O2)c(=O)n1 [Decitabine] (partner 2 µM)
Assay: as above
Conditions: first compound 0.0128 µM
Procedure, shortened: as §1

Cell Line | relative viability
LOU-NH91 | 0.792
ChaGo-K-1 | 0.493
NCI-H2170 | 0.533
NCI-H2405 | 0.861
HOP-62 | 0.241
LU99A | 0.808
BEN | 0.571
HARA | 0.609
HCC-78 | 0.674
NCI-H322M | 0.659
LCLC-97TM1 | 0.295
NCI-H2009 | 0.352
A-427 | 0.529
NCI-H441 | 0.246
NCI-H661 | 0.513
NCI-H1734 | 0.521
NCI-H460 | 0.495
NCI-H2347 | 0.618
SK-LU-1 | 0.577
NCI-H1395 | 0.753
201T | 0.929
NCI-H1915 | 0.293
HCC-827 | 0.336
LXF-289 | 0.419
NCI-H23 | 0.283
NCI-H647 | 0.451
NCI-H1651 | 0.587
EPLC-272H | 0.444
NCI-H1355 | 0.332
NCI-H3122 | 0.44

Same assay, conditions: first compound 0.04048 µM

Cell Line | relative viability
LOU-NH91 | 0.898
ChaGo-K-1 | 0.513
NCI-H2170 | 0.53
NCI-H2405 | 0.55
HOP-62 | 0.191
LU99A | 0.601
BEN | 0.733
HARA | 0.699
HCC-78 | 0.689
NCI-H322M | 0.682
LCLC-97TM1 | 0.224
NCI-H2009 | 0.386
A-427 | 0.589
NCI-H441 | 0.286
NCI-H661 | 0.532
NCI-H1734 | 0.468
NCI-H460 | 0.452
NCI-H2347 | 0.612
SK-LU-1 | 0.557
NCI-H1395 | 0.748
201T | 0.919
NCI-H1915 | 0.244
HCC-827 | 0.318
LXF-289 | 0.368
NCI-H23 | 0.291
NCI-H647 | 0.424
NCI-H1651 | 0.654
EPLC-272H | 0.315
NCI-H1355 | 0.35

Same assay, conditions: first compound 0.128 µM

Cell Line | relative viability
LOU-NH91 | 0.842
ChaGo-K-1 | 0.497
NCI-H2170 | 0.479
NCI-H2405 | 0.657
HOP-62 | 0.207
LU99A | 0.949
BEN | 0.708
HARA | 0.612
HCC-78 | 0.701
NCI-H322M | 0.648
LCLC-97TM1 | 0.257
NCI-H2009 | 0.33
A-427 | 0.571
NCI-H441 | 0.321
NCI-H661 | 0.511
NCI-H1734 | 0.516
NCI-H460 | 0.451
NCI-H2347 | 0.57
SK-LU-1 | 0.559
NCI-H1395 | 0.77
201T | 0.809
NCI-H1915 | 0.264
HCC-827 | 0.357
LXF-289 | 0.369
NCI-H23 | 0.291
NCI-H647 | 0.406
NCI-H1651 | 0.605
EPLC-272H | 0.342
NCI-H1355 | 0.338
NCI-H3122 | 0.447

Same assay, conditions: first compound 1.28 µM

Cell Line | relative viability
LOU-NH91 | 0.804
ChaGo-K-1 | 0.508
NCI-H2170 | 0.471
NCI-H2405 | 0.362
HOP-62 | 0.283
LU99A | 0.994
BEN | 0.582
HARA | 0.381
HCC-78 | 0.539
NCI-H322M | 0.63
LCLC-97TM1 | 0.235
NCI-H2009 | 0.357
A-427 | 0.666
NCI-H441 | 0.24
NCI-H661 | 0.509
NCI-H1734 | 0.479
NCI-H460 | 0.433
NCI-H2347 | 0.639
SK-LU-1 | 0.481
NCI-H1395 | 0.533
201T | 0.615
NCI-H1915 | 0.262
HCC-827 | 0.29
LXF-289 | 0.362
NCI-H23 | 0.298
NCI-H647 | 0.364
NCI-H1651 | 0.438
EPLC-272H | 0.312
NCI-H1355 | 0.372
NCI-H3122 | 0.318

Source: the supplement of paper PMC10307832
